Data published in patent US9617256B2 (priority 2007, dated 2017).
Converted amounts (≈) assume the structure as drawn. Like-named read-outs stand apart in the source and are kept apart here.

Columns and labels:
AECO001 (ATCC25922) = assay: MIC broth microdilution, AECO001; assay type: cell-based, E. coli; conditions: for MIC: Escherichia coli
How it was run: (§1)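 MICs come from broth microdilution in cation-adjusted Mueller-Hinton broth, final inoculum 3×10^5–7×10^5 CFU/mL, 18-24 hours at 35° C. Levofloxacin and QC strains served as assay controls.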

[1] = tested on: AECO063 (ATCC25922 bearing an acrAB mutation); assay: microbe, parasite or virus in culture; assay type: cell-based, E. coli; conditions: Escherichia coli, ATCC25922, read-out: MIC AECO063
How it was run: as §1

APAE001 (ATCC27853) = assay: MIC broth microdilution, APAE001; assay type: cell-based, P. aeruginosa; conditions: Pseudomonas aeruginosa, ATCC27853, read-out: MIC APAE001, APAE001 (ATCC27853)
How it was run: as §1

[2] = tested on: APAE006 (strain of P. aeruginosa in which all efflux pumps are inactivated); assay: microbe, parasite or virus in culture; assay type: cell-based; conditions: Pseudomonas aeruginosa, read-out: MIC APAE006, APAE006, all efflux pumps inactivated
How it was run: as §1

[3] = tested on: APAE006 in the presence of 8 micrograms per milliliter of polymyxin B nonapeptide; assay type: cell-based, P. aeruginosa; conditions: APAE006 with 8 micrograms per milliliter polymyxin B nonapeptide
How it was run: as §1

[4] = tested on: AABA1060 (clinical isolate of Acinetobacter baumannii); assay: MIC broth microdilution, AABA1060; assay type: cell-based; conditions: Acinetobacter baumannii, read-out: MIC AABA1060
How it was run: as §1

[5] = tested on: ASAU001 (laboratory strain of S. aureus, ATCC29213); assay: MIC broth microdilution, ASAU001; assay type: cell-based; conditions: Staphylococcus aureus, ATCC29213, read-out: MIC ASAU001
How it was run: as §1

[6] = ATCC25922, read-out: MIC AECO001
[7] = ATCC25922, read-out: MIC AECO001 HSA AGP

| Structure (SMILES) | MIC (AECO001 (ATCC25922); [6]) [µg/mL] | MIC (AECO001 (ATCC25922); [7]) [µg/mL] | MIC [1] [µg/mL] | MIC (APAE001 (ATCC27853)) [µg/mL] | MIC [2] [µg/mL] | MIC APAE006 + PMBN [3] | MIC [4] [µg/mL] | MIC [5] [µg/mL] | Ratio of MICs on AECO001 [Cpd (A = —CHCH3NH2)/Cpd (A = —C(CH3)2NH2)] (AECO001 (ATCC25922); MIC of paired compound with A = —CHCH3NH2 divided by MIC of compound with A = —C(CH3)2NH2, n=2 data, pairs identical except for the A moiety) |
| --- | --- | --- | --- | --- | --- | --- | --- | --- | --- |
| C[C@@H](NCC(=O)N[C@H](C)[C@H](NC(=O)c1ccc(C#Cc2ccccc2)cc1)C(=O)NO)c1ccccc1 [Example 132-6] | 2 to 16 (≈ 4.01 to 32.1 µM) | 16 to 64 (≈ 32.1 to 128 µM) | < 2 | 16 to 64 (≈ 32.1 to 128 µM) | < 2 | A (MIC's of 2.0 μg/mL or less = A) | 16 to 64 (≈ 32.1 to 128 µM) | 16 to 64 (≈ 32.1 to 128 µM) |  |
| CC(C)(N)[C@H](NC(=O)c1ccc(C#Cc2ccccc2)cc1)C(=O)NO [Example 133-6] | < 2 | < 2 | < 2 | < 2 | < 2 | A (MIC's of 2.0 μg/mL or less = A) | < 2 | 2 to 16 (≈ 5.69 to 45.5 µM) | 20.8 |
| C[C@@H](O)[C@H](NC(=O)c1ccc(C#Cc2ccncc2)cc1)C(=O)NO [Example 133-13] | 16 to 64 (≈ 47.1 to 189 µM) | 16 to 64 (≈ 47.1 to 189 µM) | 2 to 16 (≈ 5.89 to 47.1 µM) | 16 to 64 (≈ 47.1 to 189 µM) | < 2 | A (MIC's of 2.0 μg/mL or less = A) | 16 to 64 (≈ 47.1 to 189 µM) | 16 to 64 (≈ 47.1 to 189 µM) |  |
| CC(C)(O)[C@H](NC(=O)c1ccc(C#Cc2ccccc2)cc1)C(=O)NO [Example 133-14] | < 2 | < 2 | < 2 | 2 to 16 (≈ 5.68 to 45.4 µM) | < 2 | A (MIC's of 2.0 μg/mL or less = A) | < 2 | 16 to 64 (≈ 45.4 to 182 µM) |  |
| CC(C)(O)[C@H](NC(=O)c1ccc(C#Cc2ccncc2)cc1)C(=O)NO [Example 133-15] | 2 to 16 (≈ 5.66 to 45.3 µM) | 2 to 16 (≈ 5.66 to 45.3 µM) | < 2 | 2 to 16 (≈ 5.66 to 45.3 µM) | < 2 | A (MIC's of 2.0 μg/mL or less = A) | 2 to 16 (≈ 5.66 to 45.3 µM) | 16 to 64 (≈ 45.3 to 181 µM) |  |
| CC(C)(N)[C@H](NC(=O)c1ccc(C#CC2CC2c2ccccc2)cc1)C(=O)NO (stereo partly drawn) [Example 134-1, N—((S)-2-Amino-1-hydroxycarbamoyl-2-methyl-propyl)-4-(2-phenyl-cyclopropylethynyl)-benzamide] | 2 to 16 (≈ 5.11 to 40.9 µM) | 2 to 16 (≈ 5.11 to 40.9 µM) | < 2 | 2 to 16 (≈ 5.11 to 40.9 µM) | < 2 | A (MIC's of 2.0 μg/mL or less = A) | < 2 | 16 to 64 (≈ 40.9 to 163 µM) |  |
| C[C@@H](N)[C@H](NC(=O)c1ccc(C#CC2CC2c2ccccc2)cc1)C(=O)NO (some centres unmarked) [Example 134-2] | 2 to 16 (≈ 5.3 to 42.4 µM) | 16 to 64 (≈ 42.4 to 170 µM) | 2 to 16 (≈ 5.3 to 42.4 µM) | 2 to 16 (≈ 5.3 to 42.4 µM) | < 2 | A (MIC's of 2.0 μg/mL or less = A) | 2 to 16 (≈ 5.3 to 42.4 µM) | 16 to 64 (≈ 42.4 to 170 µM) |  |
| NC[C@H](NC(=O)C#Cc1ccc(C#CCN2CCOCC2)cc1)C(=O)NO [Example 137-10] | > 64 | > 64 | > 64 | > 64 | 16 to 64 (≈ 43.2 to 173 µM) | C (MIC's of greater than 16.0 μg/mL to 64.0 μg/mL = C) | > 64 | > 64 |  |
| NC[C@H](NC(=O)c1ccc(C#Cc2ccc(CNC(=O)CCC(=O)O)cc2)cc1)C(=O)NO [Example 137-11] | > 64 | > 64 | 16 to 64 (≈ 35.4 to 141 µM) | 16 to 64 (≈ 35.4 to 141 µM) | 2 to 16 (≈ 4.42 to 35.4 µM) | B (MIC's of greater than 2.0 μg/mL to 16.0 μg/mL = B) | > 64 | > 64 |  |
| C[C@@H](O)[C@H](NC(=O)c1ccc(/C=C/C#Cc2cccc(F)c2)cc1)C(=O)NO [Example 137-14] | < 2 | 16 to 64 (≈ 41.8 to 167 µM) | < 2 | 2 to 16 (≈ 5.23 to 41.8 µM) | < 2 | A (MIC's of 2.0 μg/mL or less = A) | 2 to 16 (≈ 5.23 to 41.8 µM) | 16 to 64 (≈ 41.8 to 167 µM) |  |
| C[C@@H](N)[C@H](NC(=O)c1ccc(C#Cc2ccc(CNCC(F)(F)F)cc2)cc1)C(=O)NO [Example 137-16] | < 2 | 2 to 16 (≈ 4.46 to 35.7 µM) | < 2 | 2 to 16 (≈ 4.46 to 35.7 µM) | < 2 | A (MIC's of 2.0 μg/mL or less = A) | 2 to 16 (≈ 4.46 to 35.7 µM) | 16 to 64 (≈ 35.7 to 143 µM) |  |
| C[C@@H](N)[C@H](NC(=O)c1ccc(C#CC(O)c2ccc(CN3CCOCC3)cc2)cc1)C(=O)NO (some centres unmarked) [Example 137-17] | 16 to 64 (≈ 34.3 to 137 µM) | 16 to 64 (≈ 34.3 to 137 µM) | 16 to 64 (≈ 34.3 to 137 µM) | 16 to 64 (≈ 34.3 to 137 µM) | 2 to 16 (≈ 4.29 to 34.3 µM) | A (MIC's of 2.0 μg/mL or less = A) | 16 to 64 (≈ 34.3 to 137 µM) | 16 to 64 (≈ 34.3 to 137 µM) |  |
| C[C@@H](N)[C@H](NC(=O)c1ccc(C#CC(O)c2ccc(CO)cc2)cc1)C(=O)NO (some centres unmarked) [Example 137-18] | 16 to 64 (≈ 40.3 to 161 µM) | 16 to 64 (≈ 40.3 to 161 µM) | 16 to 64 (≈ 40.3 to 161 µM) | 16 to 64 (≈ 40.3 to 161 µM) | 2 to 16 (≈ 5.03 to 40.3 µM) | B (MIC's of greater than 2.0 μg/mL to 16.0 μg/mL = B) | 16 to 64 (≈ 40.3 to 161 µM) | 16 to 64 (≈ 40.3 to 161 µM) |  |
| C[C@@H](O)[C@H](NC(=O)c1ccc(C#CC#Cc2ccncc2)cc1)C(=O)NO [Example 137-19] | < 2 | 2 to 16 (≈ 5.5 to 44 µM) | < 2 | 2 to 16 (≈ 5.5 to 44 µM) | < 2 | A (MIC's of 2.0 μg/mL or less = A) | 16 to 64 (≈ 44 to 176 µM) | 16 to 64 (≈ 44 to 176 µM) |  |
| C[C@@H](N)[C@H](NC(=O)c1ccc(C#CC(O)c2ccccc2)cc1)C(=O)NO (some centres unmarked) [Example 137-20] | 16 to 64 (≈ 43.5 to 174 µM) | 16 to 64 (≈ 43.5 to 174 µM) | 16 to 64 (≈ 43.5 to 174 µM) | 16 to 64 (≈ 43.5 to 174 µM) | 2 to 16 (≈ 5.44 to 43.5 µM) | A (MIC's of 2.0 μg/mL or less = A) | 2 to 16 (≈ 5.44 to 43.5 µM) | 16 to 64 (≈ 43.5 to 174 µM) |  |
| C[C@@H](N)[C@H](NC(=O)c1ccc(C#CC2CC2)cc1)C(=O)NO [Example 137-21] | 16 to 64 (≈ 53.1 to 212 µM) | 16 to 64 (≈ 53.1 to 212 µM) | 16 to 64 (≈ 53.1 to 212 µM) | 2 to 16 (≈ 6.64 to 53.1 µM) | < 2 | A (MIC's of 2.0 μg/mL or less = A) | 2 to 16 (≈ 6.64 to 53.1 µM) | 16 to 64 (≈ 53.1 to 212 µM) |  |
| C[C@@H](N)[C@H](NC(=O)c1ccc(C#CC#CC2CCNCC2)cc1)C(=O)NO [Example 137-22] | 16 to 64 (≈ 43.4 to 174 µM) | 16 to 64 (≈ 43.4 to 174 µM) | 16 to 64 (≈ 43.4 to 174 µM) | 2 to 16 (≈ 5.43 to 43.4 µM) | 2 to 16 (≈ 5.43 to 43.4 µM) | B (MIC's of greater than 2.0 μg/mL to 16.0 μg/mL = B) | 16 to 64 (≈ 43.4 to 174 µM) | 16 to 64 (≈ 43.4 to 174 µM) |  |
| CC(C)(N)[C@H](NC(=O)c1ccc(C#CC#CC2CCNCC2)cc1)C(=O)NO [Example 137-23] | 16 to 64 (≈ 41.8 to 167 µM) | 16 to 64 (≈ 41.8 to 167 µM) | 16 to 64 (≈ 41.8 to 167 µM) | 2 to 16 (≈ 5.23 to 41.8 µM) | < 2 | B (MIC's of greater than 2.0 μg/mL to 16.0 μg/mL = B) | 16 to 64 (≈ 41.8 to 167 µM) | 16 to 64 (≈ 41.8 to 167 µM) |  |
| O=C(NC(C(=O)NO)C1(O)CC1)c1ccc(C#Cc2ccc(CN3CCOCC3)cc2)cc1 (centres unmarked) [Example 137-24] | < 2 | 2 to 16 (≈ 4.45 to 35.6 µM) | < 2 | 2 to 16 (≈ 4.45 to 35.6 µM) | < 2 | A (MIC's of 2.0 μg/mL or less = A) | 2 to 16 (≈ 4.45 to 35.6 µM) | 16 to 64 (≈ 35.6 to 142 µM) |  |
| C[C@@H](N)[C@H](NC(=O)c1ccc(C#CC#CCCCO)cc1)C(=O)NO [Example 137-25] | 16 to 64 (≈ 46.6 to 186 µM) | 16 to 64 (≈ 46.6 to 186 µM) | 2 to 16 (≈ 5.82 to 46.6 µM) | 16 to 64 (≈ 46.6 to 186 µM) | < 2 | A (MIC's of 2.0 μg/mL or less = A) | 16 to 64 (≈ 46.6 to 186 µM) | 16 to 64 (≈ 46.6 to 186 µM) |  |
